Test results published in patent publication US11053253B2, “Macrocyclic compounds for treatment of medical disorders” (Achillion Pharmaceuticals, Inc., priority 2017, dated 2021).
Read-outs that look alike come from different tables or passages of the source.

Key:
[1] = rcm bond, toluene, 80.0 °C
[2] = rcm bond; 20-membered ring; Grubbs II; toluene; 1.6 mM; 80.0 °C

In the case of `CC(=O)c1nn2c3cc(ccc13)OC(=O)NCCCC=CCOC[C@@]13C[C@@H](C(=O)Nc4nc(Br)ccc4C)N(C(=O)C2)[C@@H]1C3`, the ring closure, isolated yield ([1]; from C=CCCCNC(=O)Oc1ccc2c(C(C)=O)nn(CC(=O)N3[C@H](C(=O)Nc4nc(Br)ccc4C)C[C@@]4(COCC=C)C[C@@H]34)c2c1, 20-membered ring, Grubbs II, 1.48 mM, 16.0 h) is reported as 4.1%.

`CN1CC=CCOCc2ccc(Br)nc2NC(=O)[C@@H]2C[C@]3(C[C@H]3N2C(=O)OC(C)(C)C)C1` showed a ring closure, isolated yield ([1]; from C=CCOCc1ccc(Br)nc1NC(=O)[C@@H]1C[C@@]2(CN(C)CC=C)C[C@H]2N1C(=O)OC(C)(C)C, 15-membered ring, Hoveyda-Grubbs II (extra 5 mg portions), 10.0 mM, 2.0 h) of 68%.

Work on `Cc1ncc(-c2cc3c(C#N)nn4c3c(n2)CC=CCCCC(=O)NC[C@]23C[C@@H](C(=O)Nc5nc(Br)ccc5C)N[C@@]2(C3)C(=O)C4)cn1` yielded a ring closure, isolated yield ([1]; from C=CCCCC(=O)NC[C@]12C[C@@H](C(=O)Nc3nc(Br)ccc3C)N[C@]1(C(=O)Cn1nc(C#N)c3cc(-c4cnc(C)nc4)nc(CC=C)c31)C2, 17-membered ring, Grubbs II, 1.27 mM, 16.0 h) of 44.8%.

“(4^1R,4^3S,4^5S,Z)-1^3-acetyl-N-(6-bromo-3-methylpyridin-2-yl)-3,14-dioxo-1^1H-6-oxa-4^2,13,15-triaza-1(1,6)-indazola-4(2,5)-bicyclo[3.1.0]hexanacyclopentadecaphan-8-ene-43-carboxamide” showed a ring closure, yield after HPLC [2] of 2.1%.
